{
  "source": "patent US20240002391A1",
  "about": "“4-ALKOXYPYRROLO[2,1-F][1,2,4]TRIAZINES AND PREPARATION AND USES THEREOF” (BioSplice Therapeutics, Inc., priority 2022, published 2024)",
  "data": [
    {"biological_target": "recombinant DYRK1A kinase (Homo sapiens (Human), UniProt Q13627)", "experiment": "DYRK1A kinase assay (Ser/Thr 18 peptide Z-lyte FRET)", "format": "biochemical", "settings": "DYRK1A kinase activity, Z-lyte Ser/Thr 18 peptide, 15 μM ATP; method text calls the value IC50; read-out: EC50 (the source's name)", "in_short": "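Z-lyte FRET read-out: coumarin (Em 455) over fluorescein (Em 520) emission ratio, converted to percent phosphorylation after 1 h development. Reaction: 0.25 μg/mL kinase, 15 μM ATP, 4 μM peptide, 1 h RT with compound, duplicate wells. IC50s fitted by non-linear regression.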", "units": {"IC50": "nM"}, "values": [
      {"smiles": "COc1nc(N[C@H]2CCN(CC(C)(C)C#N)C[C@H]2F)nn2ccc(-c3ccc4nnn(CC(F)F)c4c3)c12", "note": "[Compound 757, 3-((3R,4S)-4-((5-(1-(2,2-Difluoroethyl)-1H-benzo[d][1,2,3]triazol-6-yl)-4-methoxypyrrolo[2,1-f][1,2,4]triazin-2-yl)amino)-3-fluoropiperidin-1-yl)-2,2-dimethylpropanenitrile]", "IC50": 36.7},
      {"smiles": "COc1nc(N[C@H]2CCN(CC(C)(C)O)C[C@H]2F)nn2ccc(-c3ccc4nnn(CC(F)F)c4c3)c12", "note": "[Compound 758, 1-((3R,4S)-4-((5-(1-(2,2-Difluoroethyl)-1H-benzo[d][1,2,3]triazol-6-yl)-4-methoxypyrrolo[2,1-f][1,2,4]triazin-2-yl)amino)-3-fluoropiperidin-1-yl)-2-methylpropan-2-ol]", "IC50": 1.1},
      {"smiles": "COc1nc(N[C@@H]2CCN(C3COC3)C[C@@H]2F)nn2ccc(-c3ccc4nnn(CC(F)F)c4c3)c12", "note": "[Compound 761, 5-(1-(2,2-Difluoroethyl)-1H-benzo[d][1,2,3]triazol-6-yl)-N-((3S,4R)-3-fluoro-1-(oxetan-3-yl)piperidin-4-yl)-4-methoxypyrrolo[2,1-f][1,2,4]triazin-2-amine]", "IC50": 1.7},
      {"smiles": "COc1nc(N[C@H]2CCN(C3COC3)C[C@H]2F)nn2ccc(-c3ccc4nnn(CC(F)F)c4c3)c12", "note": "[Compound 762, 5-(1-(2,2-Difluoroethyl)-1H-benzo[d][1,2,3]triazol-6-yl)-N-((3R,4S)-3-fluoro-1-(oxetan-3-yl)piperidin-4-yl)-4-methoxypyrrolo[2,1-f][1,2,4]triazin-2-amine]", "IC50": 1.3},
      {"smiles": "COc1nc(N[C@H]2CCN(C3(C)COC3)C[C@H]2F)nn2ccc(-c3ccc4nnn(CC(F)F)c4c3)c12", "note": "[Compound 764, 5-(1-(2,2-difluoroethyl)-1H-benzo[d][1,2,3]triazol-6-yl)-N-((3R,4S)-3-fluoro-1-(3-methyloxetan-3-yl)piperidin-4-yl)-4-methoxypyrrolo[2,1-f][1,2,4]triazin-2-amine]", "IC50": 0.4},
      {"smiles": "COc1nc(N[C@H]2CCN(C3(C#N)COC3)C[C@H]2F)nn2ccc(-c3ccc4nnn(CC(F)F)c4c3)c12", "note": "[Compound 769, 3-((3R,4S)-4-((5-(1-(2,2-Difluoroethyl)-1H-benzo[d][1,2,3]triazol-6-yl)-4-methoxypyrrolo[2,1-f][1,2,4]triazin-2-yl)amino)-3-fluoropiperidin-1-yl)oxetane-3-carbonitrile]", "IC50": 2.9},
      {"smiles": "COc1nc(N[C@@H]2CCN(C(C)=O)C[C@@H]2F)nn2ccc(-c3ccc4nnn(CC(F)F)c4c3)c12", "note": "[Compound 770, 1-((3S,4R)-4-((5-(1-(2,2-Difluoroethyl)-1H-benzo[d][1,2,3]triazol-6-yl)-4-methoxypyrrolo[2,1-f][1,2,4]triazin-2-yl)amino)-3-fluoropiperidin-1-yl)ethan-1-one]", "IC50": 1.5},
      {"smiles": "COc1nc(N[C@H]2CCN(C(C)=O)C[C@H]2F)nn2ccc(-c3ccc4nnn(CC(F)F)c4c3)c12", "note": "[Compound 771, 1-((3R,4S)-4-((5-(1-(2,2-Difluoroethyl)-1H-benzo[d][1,2,3]triazol-6-yl)-4-methoxypyrrolo[2,1-f][1,2,4]triazin-2-yl)amino)-3-fluoropiperidin-1-yl)ethan-1-one]", "IC50": 0.1},
      {"smiles": "CCC(=O)N1CC[C@@H](Nc2nc(OC)c3c(-c4ccc5nnn(CC(F)F)c5c4)ccn3n2)[C@@H](F)C1", "note": "[Compound 772, 1-((3S,4R)-4-((5-(1-(2,2-Difluoroethyl)-1H-benzo[d][1,2,3]triazol-6-yl)-4-methoxypyrrolo[2,14][1,2,4]triazin-2-yl)amino)-3-fluoropiperidin-1-yl)propan-1-one]", "IC50": 2},
      {"smiles": "CCC(=O)N1CC[C@H](Nc2nc(OC)c3c(-c4ccc5nnn(CC(F)F)c5c4)ccn3n2)[C@H](F)C1", "note": "[Compound 773, 1-((3R,4S)-4-((5-(1-(2,2-Difluoroethyl)-1H-benzo[d][1,2,3]triazol-6-yl)-4-methoxypyrrolo[2,1-f][1,2,4]triazin-2-yl)amino)-3-fluoropiperidin-1-yl)propan-1-one]", "IC50": 0.7},
      {"smiles": "COc1nc(N[C@H]2CCN(C(=O)C3(C#N)CC3)C[C@H]2F)nn2ccc(-c3ccc4nnn(CC(F)F)c4c3)c12", "note": "[Compound 776, 1-((3R,4S)-4-((5-(1-(2,2-Difluoroethyl)-1H-benzo[d][1,2,3]triazol-6-yl)-4-methoxypyrrolo[2,1-f][1,2,4]triazin-2-yl)amino)-3-fluoropiperidine-1-carbonyl)cyclopropane-1-carbonitrile]", "IC50": 0.5},
      {"smiles": "COc1nc(N[C@@H]2CCN(C)CC2(F)F)nn2ccc(-c3ccc4nnn(CC(F)F)c4c3)c12", "note": "[Compound 777, (R)—N-(3,3-Difluoro-1-methylpiperidin-4-yl)-5-(1-(2,2-difluoroethyl)-1H-benzo[d][1,2,3]triazol-6-yl)-4-methoxypyrrolo[2,1-f][1,2,4]triazin-2-amine]", "IC50": 1.6},
      {"smiles": "CCN1CC[C@@H](Nc2nc(OC)c3c(-c4ccc5nnn(CC(F)F)c5c4)ccn3n2)C(F)(F)C1", "note": "[Compound 780, (R)-5-(1-(2,2-Difluoroethyl)-1H-benzo[d][1,2,3]triazol-6-yl)-N-(1-ethyl-3,3-difluoropiperidin-4-yl)-4-methoxypyrrolo[2,1-f][1,2,4]triazin-2-amine]", "IC50": 1.9},
      {"smiles": "COc1nc(N[C@@H]2CCN(C3COC3)CC2(F)F)nn2ccc(-c3ccc4nnn(CC(F)F)c4c3)c12", "note": "[Compound 785, (R)—N-(3,3-Difluoro-1-(oxetan-3-yl)piperidin-4-yl)-5-(1-(2,2-difluoroethyl)-1H-benzo[d][1,2,3]triazol-6-yl)-4-methoxypyrrolo[2,1-f][1,2,4]triazin-2-amine]", "IC50": 0.5},
      {"smiles": "COc1nc(N[C@@H]2CCN(C(C)=O)CC2(F)F)nn2ccc(-c3ccc4nnn(CC(F)F)c4c3)c12", "note": "[Compound 788, (R)-1-(4-((5-(1-(2,2-Difluoroethyl)-1H-benzo[d][1,2,3]triazol-6-yl)-4-methoxypyrrolo[2,1-f][1,2,4]triazin-2-yl)amino)-3,3-difluoropiperidin-1-yl)ethan-1-one]", "IC50": 0.7},
      {"smiles": "COc1nc(N[C@@H]2CCN(C(=O)C3(C#N)CC3)CC2(F)F)nn2ccc(-c3ccc4nnn(CC(F)F)c4c3)c12", "note": "[Compound 791, (R)-1-(4-((5-(1-(2,2-Difluoroethyl)-1H-benzo[d][1,2,3]triazol-6-yl)-4-methoxypyrrolo[2,1-f][1,2,4]triazin-2-yl)amino)-3,3-difluoropiperidine-1-carbonyl)cyclopropane-1-carbonitrile]", "IC50": 2.2},
      {"smiles": "COc1nc(NC2CCC(=O)N(C)C2)nn2ccc(-c3ccc4nnn(CC(F)F)c4c3)c12", "note": "(stereo not shown) [Compound 793, 5-((5-(1-(2,2-Difluoroethyl)-1H-benzo[d][1,2,3]triazol-6-yl)-4-methoxypyrrolo[2,1-f][1,2,4]triazin-2-yl)amino)-1-methylpiperidin-2-one]", "IC50": 1.3},
      {"smiles": "COc1nc(NC23CCC(O)(CC2)C3)nn2ccc(-c3ccc4nnn(CC(F)F)c4c3)c12", "note": "[Compound 798, 4-((5-(1-(2,2-Difluoroethyl)-1H-benzo[d][1,2,3]triazol-6-yl)-4-methoxypyrrolo[2,1-f][1,2,4]triazin-2-yl)amino)bicyclo[2.2.1]heptan-1-ol]", "IC50": 0.3},
      {"smiles": "COc1nc(NC2CCC3(CC2)CN(C(C)=O)C3)nn2ccc(-c3ccc4nnn(CC(F)F)c4c3)c12", "note": "[Compound 799, 1-(7-((5-(1-(2,2-Difluoroethyl)-1H-benzo[d][1,2,3]triazol-6-yl)-4-methoxypyrrolo[2,1-f][1,2,4]triazin-2-yl)amino)-2-azaspiro[3.5]nonan-2-yl)ethan-1-one]", "IC50": 1.7}
    ]}
  ]
}
